Measurements published in patent publication US7323303B2, “Modified β-lactamases and uses thereof” (priority 2003, dated 2008).

How the values were obtained:
E166Cf enzyme = target: T1, E166Cf enzyme (Bacillus cereus, UniProt P00809, E185C); test: Detection of β-lactam antibiotics in milk by E166Cf fluorescence; conditions: untreated milk; E166Cf 1.2×10^−7 M
T1 construct: made in house; host or cells: B. subtilis 1A304 (φ105MU331); then labelled chemically
T1 sequence (P00809 28-306 E185C): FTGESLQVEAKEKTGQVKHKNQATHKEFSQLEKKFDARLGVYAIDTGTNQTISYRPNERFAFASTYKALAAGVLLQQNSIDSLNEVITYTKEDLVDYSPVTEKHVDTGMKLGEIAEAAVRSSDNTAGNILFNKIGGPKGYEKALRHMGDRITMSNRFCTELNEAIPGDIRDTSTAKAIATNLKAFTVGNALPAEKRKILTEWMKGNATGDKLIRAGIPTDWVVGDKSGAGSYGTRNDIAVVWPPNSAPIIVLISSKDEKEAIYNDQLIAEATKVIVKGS
Description: Fluorescence measurements of the E166Cf enzyme in milk in the presence of penicillin G and ampicillin were performed on a FLUOstar microplate reader (BMG Labtechnologies) equipped with two sample injectors. Excitation and emission filters of 485 and 520 nm respectively were used. Milk (pasteurized and homogenized, Nestle Dairy Farm) was purchased at a local supermarket. The labeled enzyme was mixed with the milk sample in a 96-well microtiter plate (Corning Costar). The antibiotics were then added to the mixtures by the injectors.
FIGS. 21 and 22 show the results from the time-resolved fluorescence measurements of the labeled enzyme (1.2×10^−7 M) in untreated milk in the presence of various concentrations of penicillin G and ampicillin respectively.

[1] = target: T2, E166C mutant of β-lactamase I (Bacillus cereus, UniProt P00809, E185C); test: Spectrophotometric substrate hydrolysis, steady-state kinetics; assay type: biochemical; conditions: 50 mM potassium phosphate buffer pH 7.0, 20° C.
T2 construct: made in house; host or cells: B. subtilis 1A304 (φ105MU331)
T2 sequence (P00809 28-306 E185C): T1 sequence (P00809 28-306 E185C)
Description: (§1) The hydrolytic activities of the wild-type β-lactamase I, E166C and E166Cf mutants towards penicillin G, penicillin V and ampicillin (Sigma) were monitored by the spectrophotometric method. The spectrophotometric measurements were performed on a Perkin Elmer Lambda Bio20 UV/Vis spectrometer. Substrate hydrolysis was monitored at a fixed wavelength: 235 nm for ampicillin, 232 nm for penicillin G and penicillin V. The initial rate of substrate hydrolysis occurring within 5 min was determined in duplicate at each of 6 different substrate concentrations in 50 mM potassium phosphate buffer (pH 7.0) at 20° C. The initial rates determined were then treated as described in Reference 5 to calculate the Michaelis constants (Km) and turnover numbers (kcat) using non-linear regression analysis (equation 1):
(§2) [formula] where v is the initial rate of substrate hydrolysis, Vmax the maximum rate of reaction, [S] the initial substrate concentration, Km the Michaelis constant and kcat=Vmax/[Enzyme].
(§3) The measured steady-state kinetic parameters for hydrolysis of penicillin G, penicillin V and ampicillin by the wild-type β-lactamase I, E166C and E166Cf mutants are summarized in Table 1.

wild-type β-lactamase I = target: T3, wild-type β-lactamase I (Bacillus cereus, UniProt P00809); test: as above; assay type: biochemical; conditions: 50 mM potassium phosphate buffer pH 7.0, 20° C.
T3 construct: made in house; host or cells: B. subtilis 1A304 (φ105MU331)
Description: as §1, §2, §3

B. cereus β-lactamase II = target: T4, B. cereus β-lactamase II (Bacillus cereus, UniProt P04190); test: Drug screening: E166Cf fluorescence in presence of bacterial β-lactamase culture; assay type: biochemical; set-up: key: −: Decline in fluorescence signal (presence of beta-lactam hydrolysis); +: No decline in fluorescence signal (absence of beta-lactam hydrolysis); conditions: antibiotic 1.0×10^−4 M, E166Cf 1.2×10^−7 M
T4 construct: made in house; host or cells: B. subtilis 1A304 (φ105MU331); whole culture used, not purified
Description: (§4) The use of the E166Cf enzyme in screening bacterial β-lactamases against various β-lactam antibiotics was investigated. The principle of our method is that when both E166Cf and bacterial β-lactamase are incubated with ‘β-lactamase-unstable’ antibiotics, the fluorescence of the E166Cf enzyme will be suppressed because of the greater catalytic efficiency of the bacterial enzyme. In contrast, when bacterial β-lactamases are screened against ‘β-lactamase-resistant’ antibiotics, the fluorescence of the E166Cf enzyme will be enhanced because of the poor hydrolytic activity of the bacterial enzyme. Thus, any β-lactam antibiotic that causes the labeled enzyme to increase its fluorescence intensity in the presence of bacterial β-lactamases can be used in clinical treatments.
(§5) The β-lactamase II, penPC β-lactamase and penP β-lactamase were expressed in B. subtilis 1A304 (φ105MU331). These enzymes were prepared according to the procedures described previously (Reference 7: Thomwell, S. J. East, A. K., Errington, J. An efficient expression and secretion system based on Bacillus subtilis phage phi 105 and its uses for the production for B. cereus β-lactamase I. (1993) Gene 133, 47-53) with slight modifications. A bacterial strain was streaked on an agar plate containing 5 μg/ml chloramphenicol, and the plate was incubated at 37° C. for 24 h. A single bacterial colony from the agar plate was inoculated into 100 ml of sterilized BHY medium (37 g/l brain heart infusion and 5 g/l yeast extract) which was then incubated at 37° C. with shaking at 300 rpm overnight. About 7 ml of overnight inoculum was added to a baffled conical flask containing 100 ml of sterilized BHY medium. The inoculated medium was incubated at 37° C. with shaking at 300 rpm. When the optical density of the bacterial culture at 600 nm reached 3.5 to 4.0, the bacterial culture was heated in a water bath at 51° C. for 5 min. Afterwards, the bacterial culture was incubated at 37° C. with shaking at 300 rpm for a further 6 h. The bacterial culture was then harvested and stored at −20° C.
(§6) Fluorescence measurements of the E166Cf enzyme in the presence of bacterial cultures and β-lactam antibiotics were performed on a FLUOstar microplate reader (BMG Labtechnologies) equipped with two sample injectors. Excitation and emission filters of 485 and 520 nm respectively were used. For B. cereus penPC β-lactamase, B. licheniformis penP β-lactamase and B. cereus β-lactamase II, the labeled enzymes were mixed with the bacterial cultures, and the mixtures were made up to 300 μl with 50 mM phosphate buffer (pH 7.0) in a 96-well microtiter plate (Corning Costar). For the purpose of comparison, B. subtilis cultures, which produced no β-lactamase, were set up as negative controls. For E. coli. TEM-1 β-lactamase, the labeled enzymes were mixed with the bacterial cultures without dilution. E. coli. cultures, which produced no β-lactamase, were set up as negative controls for comparison. The antibiotics were then added to the bacterial samples by the injectors.
(§7) The results from the time-resolved fluorescence measurements of the labeled enzyme (1.2×10^−7 M) in the presence of various bacterial cultures and β-lactam antibiotics (1.0×10^−4 M) are shown in FIGS. 23 to 26.

[2] = target: T5, B. cereus penPC β-lactamase (Bacillus cereus, UniProt P00809); test: as above; assay type: biochemical; set-up: key: −: Decline in fluorescence signal (presence of beta-lactam hydrolysis); +: No decline in fluorescence signal (absence of beta-lactam hydrolysis); conditions: antibiotic 1.0×10^−4 M, E166Cf 1.2×10^−7 M
T5 construct: made in house; host or cells: B. subtilis 1A304 (φ105MU331); whole culture used, not purified
Description: as §4, §5, §6, §7

[3] = target: T6, B. licheniformis penP β-lactamase (Bacillus licheniformis, UniProt P00808); test: as above; assay type: biochemical; set-up: key: −: Decline in fluorescence signal (presence of beta-lactam hydrolysis); +: No decline in fluorescence signal (absence of beta-lactam hydrolysis); conditions: antibiotic 1.0×10^−4 M, E166Cf 1.2×10^−7 M
T6 construct: made in house; host or cells: B. subtilis 1A304 (φ105MU331); whole culture used, not purified
Description: as §4, §5, §6, §7

T3 sequence (P00809 28-306): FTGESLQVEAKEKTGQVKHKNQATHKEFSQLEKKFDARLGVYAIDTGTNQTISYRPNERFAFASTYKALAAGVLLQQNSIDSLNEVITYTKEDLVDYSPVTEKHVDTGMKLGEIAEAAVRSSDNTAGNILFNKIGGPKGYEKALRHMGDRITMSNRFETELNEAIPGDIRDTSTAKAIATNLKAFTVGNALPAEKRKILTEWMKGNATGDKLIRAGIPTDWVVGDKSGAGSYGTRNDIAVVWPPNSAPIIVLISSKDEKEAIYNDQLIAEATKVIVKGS
T4 sequence (P04190 31-257): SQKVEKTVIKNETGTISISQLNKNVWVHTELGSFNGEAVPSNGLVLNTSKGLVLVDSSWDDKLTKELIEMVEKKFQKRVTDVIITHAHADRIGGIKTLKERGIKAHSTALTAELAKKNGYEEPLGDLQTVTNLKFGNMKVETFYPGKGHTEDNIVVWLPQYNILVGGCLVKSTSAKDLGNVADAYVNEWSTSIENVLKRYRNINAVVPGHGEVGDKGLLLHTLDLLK
T5 sequence (P00809 28-306): as the sequence (P00809 28-306) above
T6 sequence (P00808 27-307): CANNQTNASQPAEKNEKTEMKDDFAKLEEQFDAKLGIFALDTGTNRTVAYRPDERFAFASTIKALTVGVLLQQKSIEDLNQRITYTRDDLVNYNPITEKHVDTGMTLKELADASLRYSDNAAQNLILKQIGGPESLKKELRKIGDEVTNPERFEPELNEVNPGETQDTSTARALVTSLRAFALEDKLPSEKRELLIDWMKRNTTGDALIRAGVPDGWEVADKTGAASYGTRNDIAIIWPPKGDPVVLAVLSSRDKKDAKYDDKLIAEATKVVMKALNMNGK

`CC1(C)S[C@@H]2[C@H](NC(=O)Cc3ccccc3)C(=O)N2[C@H]1C(=O)O` [Penicillin G, penicillin G] was tested, and the “lowest concentration detected by the labeled enzyme” value (E166Cf enzyme) was 10^−6 M, the Km [1] was 72 ± 3 µM and the kcat [1] was 2.07 ± 0.02 s⁻¹. For the same compound, the Km (wild-type β-lactamase I) was 48 ± 3 µM, the kcat (wild-type β-lactamase I) was 2612 ± 320 s⁻¹ and the “fluorescence signal of E166Cf (beta-lactam hydrolysis)” value (“fluorescence signal of E166Cf” below) (B. cereus β-lactamase II) was “−”. For the same compound, the “fluorescence signal of E166Cf” value [2] was “−” and the “fluorescence signal of E166Cf” value [3] was “−”.
